Measured values: ChEMBL document CHEMBL5291721, “A preclinical secondary pharmacology resource illuminates target-adverse drug reaction associations of marketed drugs” (Nat Commun, 2023)

Assays:
[1] = molecular target: T1, Muscarinic acetylcholine receptor M1 (Homo sapiens, UniProt P11229); assay type: functional, cell-based
T1 sequence (P11229 whole entry): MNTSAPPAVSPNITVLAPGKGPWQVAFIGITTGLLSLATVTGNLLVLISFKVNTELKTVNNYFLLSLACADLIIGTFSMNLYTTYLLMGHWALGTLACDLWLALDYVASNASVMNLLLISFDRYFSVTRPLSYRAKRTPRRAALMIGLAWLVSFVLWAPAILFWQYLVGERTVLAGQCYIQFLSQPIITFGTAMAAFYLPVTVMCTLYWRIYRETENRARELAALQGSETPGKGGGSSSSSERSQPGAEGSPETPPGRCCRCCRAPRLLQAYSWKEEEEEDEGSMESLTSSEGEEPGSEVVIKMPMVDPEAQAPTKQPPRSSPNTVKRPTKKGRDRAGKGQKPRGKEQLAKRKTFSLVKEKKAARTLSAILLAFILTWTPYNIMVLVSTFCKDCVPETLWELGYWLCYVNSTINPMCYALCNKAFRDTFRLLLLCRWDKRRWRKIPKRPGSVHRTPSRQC

[2] = molecular target: T2, Type-1 angiotensin II receptor (Homo sapiens, UniProt P30556)
T2 sequence (P30556 whole entry): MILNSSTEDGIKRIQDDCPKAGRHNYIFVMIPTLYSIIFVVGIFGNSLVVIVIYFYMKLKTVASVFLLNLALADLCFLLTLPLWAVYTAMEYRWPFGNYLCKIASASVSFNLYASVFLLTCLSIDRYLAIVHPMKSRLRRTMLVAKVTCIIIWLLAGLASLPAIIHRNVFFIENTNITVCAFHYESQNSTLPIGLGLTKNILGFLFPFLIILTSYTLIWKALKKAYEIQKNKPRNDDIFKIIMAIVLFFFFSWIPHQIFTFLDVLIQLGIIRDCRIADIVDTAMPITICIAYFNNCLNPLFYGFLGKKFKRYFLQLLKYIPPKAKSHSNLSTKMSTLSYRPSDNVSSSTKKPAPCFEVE

Adenosine receptor A1 = molecular target: T3, Adenosine receptor A1 (Homo sapiens, UniProt P30542)
T3 sequence (P30542 whole entry): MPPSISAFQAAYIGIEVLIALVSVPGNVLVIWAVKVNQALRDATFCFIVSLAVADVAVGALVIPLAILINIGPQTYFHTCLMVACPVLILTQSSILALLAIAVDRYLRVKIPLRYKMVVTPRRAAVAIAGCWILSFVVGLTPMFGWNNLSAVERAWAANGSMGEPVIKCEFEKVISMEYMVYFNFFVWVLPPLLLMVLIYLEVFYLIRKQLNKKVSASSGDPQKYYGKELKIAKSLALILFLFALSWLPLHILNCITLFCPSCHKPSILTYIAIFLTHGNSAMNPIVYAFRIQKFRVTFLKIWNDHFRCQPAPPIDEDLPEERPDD

[3] = molecular target: T4, Neuropeptide Y receptor type 1 (Homo sapiens, UniProt P25929)
T4 sequence (P25929 whole entry): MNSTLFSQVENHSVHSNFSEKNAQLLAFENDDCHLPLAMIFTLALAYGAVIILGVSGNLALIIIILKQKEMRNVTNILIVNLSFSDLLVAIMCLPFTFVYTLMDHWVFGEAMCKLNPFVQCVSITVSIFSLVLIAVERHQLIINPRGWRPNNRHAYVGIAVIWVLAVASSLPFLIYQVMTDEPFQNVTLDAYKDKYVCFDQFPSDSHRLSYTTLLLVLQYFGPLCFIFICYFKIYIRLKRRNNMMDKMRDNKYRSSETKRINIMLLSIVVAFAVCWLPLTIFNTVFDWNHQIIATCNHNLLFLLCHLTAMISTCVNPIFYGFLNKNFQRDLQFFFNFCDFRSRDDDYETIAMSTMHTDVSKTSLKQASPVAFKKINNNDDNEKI

[4] = molecular target: Gamma-aminobutyric acid receptor subunit alpha-1 (Rattus norvegicus, UniProt P62813); assay type: functional
Gamma-aminobutyric acid receptor subunit alpha-1, sequence (P62813 whole entry): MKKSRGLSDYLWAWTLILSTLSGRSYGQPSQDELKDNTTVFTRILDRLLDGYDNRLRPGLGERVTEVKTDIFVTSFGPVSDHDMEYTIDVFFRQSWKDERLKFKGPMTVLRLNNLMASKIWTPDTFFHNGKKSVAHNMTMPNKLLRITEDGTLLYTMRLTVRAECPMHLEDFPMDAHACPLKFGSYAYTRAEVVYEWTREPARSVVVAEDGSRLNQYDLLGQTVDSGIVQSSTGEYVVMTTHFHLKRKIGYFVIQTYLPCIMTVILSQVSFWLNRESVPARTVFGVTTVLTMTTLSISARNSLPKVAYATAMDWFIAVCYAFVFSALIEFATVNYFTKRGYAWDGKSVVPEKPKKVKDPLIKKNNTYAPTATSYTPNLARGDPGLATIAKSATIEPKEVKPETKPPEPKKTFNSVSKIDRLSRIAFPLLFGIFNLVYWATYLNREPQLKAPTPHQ

[5] = molecular target: T5, Muscarinic acetylcholine receptor M2 (Homo sapiens, UniProt P08172); assay type: functional, cell-based
T5 sequence (P08172 whole entry): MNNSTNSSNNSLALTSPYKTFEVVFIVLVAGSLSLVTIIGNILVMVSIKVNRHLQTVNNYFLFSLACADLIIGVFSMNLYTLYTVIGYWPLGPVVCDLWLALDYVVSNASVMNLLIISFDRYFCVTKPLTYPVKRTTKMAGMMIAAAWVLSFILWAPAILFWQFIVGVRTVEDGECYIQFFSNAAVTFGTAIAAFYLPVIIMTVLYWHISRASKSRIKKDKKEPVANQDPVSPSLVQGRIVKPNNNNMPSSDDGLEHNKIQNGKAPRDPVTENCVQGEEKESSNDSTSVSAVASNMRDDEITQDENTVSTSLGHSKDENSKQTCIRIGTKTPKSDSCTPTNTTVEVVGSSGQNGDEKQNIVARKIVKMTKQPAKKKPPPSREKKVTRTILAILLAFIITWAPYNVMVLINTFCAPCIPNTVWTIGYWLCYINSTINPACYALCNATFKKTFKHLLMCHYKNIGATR

[6] = molecular target: cGMP-inhibited 3',5'-cyclic phosphodiesterase 3A (Homo sapiens, UniProt Q14432); assay type: functional
cGMP-inhibited 3',5'-cyclic phosphodiesterase 3A, sequence (Q14432 whole entry): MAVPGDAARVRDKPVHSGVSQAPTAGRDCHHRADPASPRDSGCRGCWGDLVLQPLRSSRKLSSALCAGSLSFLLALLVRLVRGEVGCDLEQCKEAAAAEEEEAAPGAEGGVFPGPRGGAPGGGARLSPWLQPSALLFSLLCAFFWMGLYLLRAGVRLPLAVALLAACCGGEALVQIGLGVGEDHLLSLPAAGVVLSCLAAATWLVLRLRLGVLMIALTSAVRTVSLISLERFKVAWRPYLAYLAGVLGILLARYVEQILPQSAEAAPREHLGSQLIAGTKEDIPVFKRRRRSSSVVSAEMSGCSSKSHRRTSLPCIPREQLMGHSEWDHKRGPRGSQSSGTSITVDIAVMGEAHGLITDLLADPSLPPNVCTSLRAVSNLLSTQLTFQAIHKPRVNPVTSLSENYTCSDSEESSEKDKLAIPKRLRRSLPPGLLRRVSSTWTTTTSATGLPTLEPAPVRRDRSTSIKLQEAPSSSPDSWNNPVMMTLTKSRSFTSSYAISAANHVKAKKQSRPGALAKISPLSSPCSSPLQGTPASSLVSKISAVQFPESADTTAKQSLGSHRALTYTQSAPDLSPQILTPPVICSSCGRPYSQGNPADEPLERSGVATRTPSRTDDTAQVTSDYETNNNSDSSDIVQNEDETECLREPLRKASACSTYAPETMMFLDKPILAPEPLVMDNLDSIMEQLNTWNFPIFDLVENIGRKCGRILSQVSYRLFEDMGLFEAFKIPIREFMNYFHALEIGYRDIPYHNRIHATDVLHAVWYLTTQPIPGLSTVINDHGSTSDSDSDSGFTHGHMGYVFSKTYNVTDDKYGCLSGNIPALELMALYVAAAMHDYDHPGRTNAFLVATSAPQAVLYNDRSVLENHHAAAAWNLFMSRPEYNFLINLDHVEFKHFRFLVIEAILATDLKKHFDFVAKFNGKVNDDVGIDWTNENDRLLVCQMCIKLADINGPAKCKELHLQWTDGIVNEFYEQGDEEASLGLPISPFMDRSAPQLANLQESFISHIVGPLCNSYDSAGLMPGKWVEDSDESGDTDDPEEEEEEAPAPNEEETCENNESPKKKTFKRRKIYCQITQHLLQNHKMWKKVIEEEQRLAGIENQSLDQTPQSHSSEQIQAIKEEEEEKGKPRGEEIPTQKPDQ

[7] = molecular target: Neuronal acetylcholine receptor subunit alpha-4 (Homo sapiens, UniProt P43681)
Neuronal acetylcholine receptor subunit alpha-4, sequence (P43681 whole entry): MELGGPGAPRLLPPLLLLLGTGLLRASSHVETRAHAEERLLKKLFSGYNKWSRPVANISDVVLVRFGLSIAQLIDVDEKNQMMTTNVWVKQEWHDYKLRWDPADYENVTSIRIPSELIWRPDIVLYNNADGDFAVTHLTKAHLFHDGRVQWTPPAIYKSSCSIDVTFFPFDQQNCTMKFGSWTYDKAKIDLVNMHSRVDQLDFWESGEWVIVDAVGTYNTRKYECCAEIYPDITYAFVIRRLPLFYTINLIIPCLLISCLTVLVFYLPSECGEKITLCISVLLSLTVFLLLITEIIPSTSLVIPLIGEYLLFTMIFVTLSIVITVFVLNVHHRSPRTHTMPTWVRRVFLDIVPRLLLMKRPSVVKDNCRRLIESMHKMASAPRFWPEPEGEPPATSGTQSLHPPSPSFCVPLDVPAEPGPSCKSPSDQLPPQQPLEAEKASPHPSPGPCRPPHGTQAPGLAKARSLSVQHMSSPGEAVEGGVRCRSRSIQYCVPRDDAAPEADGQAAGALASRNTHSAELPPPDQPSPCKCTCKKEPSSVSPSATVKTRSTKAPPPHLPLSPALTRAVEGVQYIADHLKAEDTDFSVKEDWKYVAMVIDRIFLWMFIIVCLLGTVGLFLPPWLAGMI

D(1A) dopamine receptor = D(1A) dopamine receptor (Homo sapiens, UniProt P21728); assay type: functional, cell-based
D(1A) dopamine receptor, sequence (P21728 whole entry): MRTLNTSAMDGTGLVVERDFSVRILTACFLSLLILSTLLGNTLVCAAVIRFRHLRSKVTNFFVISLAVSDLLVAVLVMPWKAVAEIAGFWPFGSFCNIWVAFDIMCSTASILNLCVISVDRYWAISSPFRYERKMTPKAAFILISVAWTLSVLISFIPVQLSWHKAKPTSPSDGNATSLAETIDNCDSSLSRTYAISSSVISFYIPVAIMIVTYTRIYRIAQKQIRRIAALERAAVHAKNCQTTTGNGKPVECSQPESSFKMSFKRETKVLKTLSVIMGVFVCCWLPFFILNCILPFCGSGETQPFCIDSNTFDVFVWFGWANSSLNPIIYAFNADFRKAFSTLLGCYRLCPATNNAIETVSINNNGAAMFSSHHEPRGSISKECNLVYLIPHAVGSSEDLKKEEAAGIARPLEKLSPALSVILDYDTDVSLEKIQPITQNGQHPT

Adenosine receptor A3 = molecular target: T6, Adenosine receptor A3 (Homo sapiens, UniProt P0DMS8)
T6 sequence (P0DMS8 whole entry): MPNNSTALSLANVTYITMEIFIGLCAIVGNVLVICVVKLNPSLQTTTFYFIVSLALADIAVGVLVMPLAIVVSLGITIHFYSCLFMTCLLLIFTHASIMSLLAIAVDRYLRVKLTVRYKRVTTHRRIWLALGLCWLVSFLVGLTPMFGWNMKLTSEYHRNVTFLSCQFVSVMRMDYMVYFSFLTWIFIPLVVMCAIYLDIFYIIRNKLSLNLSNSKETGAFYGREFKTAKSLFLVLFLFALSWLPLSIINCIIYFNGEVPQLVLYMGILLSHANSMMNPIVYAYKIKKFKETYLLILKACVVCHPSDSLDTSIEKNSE
Also: assay procedure not described here.

`C=C1c2c(Cl)ccc(O)c2C(=O)C2=C(O)[C@]3(O)C(=O)C(C(N)=O)=C(O)[C@@H](N(C)C)[C@@H]3[C@@H](O)[C@H]12` [MECLOCYCLINE] gave an AC50 [1] of over 30 µM.

`NC(=O)c1nc(F)c[nH]c1=O` showed an AC50 [1] of over 30 µM.

In the case of `O=C(Nc1cccc2c(=O)cc(-c3nnn[nH]3)oc12)c1ccc(OCCCCc2ccccc2)cc1`, the AC50 [1] is reported as over 30 µM.

`CC[C@@H](CO)NC(=O)[C@@H]1C=C2c3cccc4[nH]cc(c34)C[C@H]2N(C)C1` [METHYLERGONOVINE] showed an AC50 [2] of over 30 µM, an AC50 (Adenosine receptor A1) of over 30 µM and an AC50 [3] of over 30 µM. For the same molecule, the AC50 [4] was over 30 µM, the AC50 [5] was over 30 µM and the AC50 [6] was over 30 µM. The AC50 [7] was over 30 µM, the AC50 (D(1A) dopamine receptor) was 0.0031 µM and the AC50 (Adenosine receptor A3) was over 30 µM.

`CC(C)C[C@H](CN)CC(=O)O` [PREGABALIN] was tested, and the AC50 [2] was over 30 µM, the AC50 (Adenosine receptor A1) was over 30 µM and the AC50 [3] was over 30 µM. It also gave an AC50 [4] of over 30 µM, an AC50 [5] of over 30 µM and an AC50 [6] of over 30 µM. The AC50 [7] was over 30 µM, the AC50 (D(1A) dopamine receptor) was over 30 µM and the AC50 (Adenosine receptor A3) was over 30 µM.

Molecule `N=C(N)NCc1cccc([123I])c1` [IOBENGUANE I 123] has an AC50 [1] of over 30 µM.

Molecule `O=C(O)COc1nn(Cc2ccccc2)c2ccccc12` [BENDAZAC] has an AC50 [1] of over 30 µM.

With `Cc1cnc(NC(=O)C2=C(O)c3ccccc3S(=O)(=O)N2C)s1` [MELOXICAM] the AC50 [2] was over 30 µM, the AC50 (Adenosine receptor A1) was over 30 µM and the AC50 [3] was over 30 µM. For the same molecule, the AC50 [4] was over 10 µM, the AC50 [5] was over 10 µM and the AC50 [6] was over 10 µM. For the same molecule, the AC50 [7] was over 10 µM, the AC50 (D(1A) dopamine receptor) was over 10 µM and the AC50 (Adenosine receptor A3) was over 30 µM.

`CN(C)C(=O)c1nc(CNC(=O)CN)n(-c2ccc(Cl)cc2C(=O)c2ccccc2Cl)n1` [RILMAZAFONE] gave an AC50 [1] of over 30 µM.

`NC(=O)NS(=O)(=O)c1ccc(N)cc1` [SULFACARBAMIDE] gave an AC50 [1] of over 30 µM.

For `COc1nccnc1NS(=O)(=O)c1ccc(N)cc1`, the AC50 [1] was over 30 µM.

Molecule `CN(C)c1cc(CNCC(C)(C)C)c(O)c2c1C[C@H]1C[C@H]3[C@H](N(C)C)C(O)=C(C(N)=O)C(=O)[C@@]3(O)C(O)=C1C2=O` [OMADACYCLINE] has an AC50 [2] of over 30 µM, an AC50 (Adenosine receptor A1) of over 30 µM and an AC50 [3] of over 30 µM. For the same molecule, the AC50 [4] was over 30 µM, the AC50 [5] was 24.3 µM and the AC50 [6] was over 30 µM. It also gave an AC50 [7] of over 30 µM, an AC50 (D(1A) dopamine receptor) of over 30 µM and an AC50 (Adenosine receptor A3) of 25 µM.

Work on `Cc1ccc([C@@H]2O[C@H](CO)[C@@H](O)[C@H](O)[C@H]2O)cc1Cc1ccc(-c2ccc(F)cc2)s1` [CANAGLIFLOZIN ANHYDROUS] yielded an AC50 [1] of over 30 µM.
